Measured values from a melting point compilation (Tetko et al.; mined from patent text by program, amines drawn as free bases though some values may be those of a salt).

In the case of `O=C(NO)c1ccc(CNC(=O)c2[nH]c(-c3ccccc3)cc2-c2ccc(O)cc2)cc1`, the melting point is reported as 139 to 141 °C.
Work on `Cc1c(Br)cccc1N1CCn2c(cc3c2CCCC3)C1=O` yielded a melting point of 163 to 165 °C.
Work on `COCc1ccc(C(=O)OC)cn1` yielded a melting point of 33 °C.
With `CN1CCC(=C2c3ccc(Cl)cc3C(=NO)Cc3cccnc32)CC1` the melting point was 172 to 175 °C.
With `N#Cc1ccc(OCCCCl)cc1` the melting point was 40 to 44 °C.
`O=C1C(c2ccc(O)cc2)=C(Br)c2c(O)cc(O)cc21` showed a melting point of 160 to 162 °C.
`O=S(=O)(c1ccccc1)N1CCC(=C(c2ccc(F)cc2)c2ccc(F)cc2)CC1` gave a melting point of 90 to 92.5 °C.
Molecule `CC(C)C(C)(C#N)N1C(=O)C=C(Nc2ccccc2CO)C1=O` (stereo unspecified) has a melting point of 39 to 45 °C.
`CN(C)c1ccc(S(=O)(=O)Nc2cnc3ccc(Cl)cc3n2)cc1` showed a melting point of 206 to 207 °C.
For `COCC1CCCN1S(=O)(=O)c1ccc2c(c1)C1(OCCCO1)C1=NCC(C)(C)CN12` (stereo unspecified), the melting point was 169 to 171 °C.
`Cc1ccc(O)c(C)c1C=O` gave a melting point of 159 to 165 °C.
In the case of `COC(=O)Cc1ccc(OCC(C)NCC(O)c2ccc(Cl)cc2)cc1` (stereo unspecified), the melting point is reported as 78 to 79 °C.
Molecule `COC(=O)C(C(=O)OC)[C@H]1C=Cc2ccccc2[C@H]1O` (relative stereo) has a melting point of 65 to 67 °C.
With `COc1ccc(NC(=O)Oc2cccc3ccoc23)cc1` the melting point was 157 to 159 °C.
Work on `COc1cccc(C(=O)OC(=C2C(=O)N(C(N)=O)c3cc(Cl)c(F)cc32)c2cccs2)c1` yielded a melting point of 196 to 220 °C.
Molecule `COC(=O)c1ccc(C(=O)CC(=O)c2ccccc2)cc1` has a melting point of 107 to 108 °C.
`O=C(O)CCC1=C2C(=CC(Cl)=CC2(F)Cl)NC1C(=O)O` (stereo unspecified) gave a melting point of 292 to 294 °C.
Work on `Cc1nc(N(C)c2cc(Cl)cc(Cl)c2)sc1-c1ccnc(Nc2ccc(N3CCOCC3)cc2)n1` yielded a melting point of 216 to 218 °C.
For `CCCC1CC(=O)c2c(NC(=O)C(=O)O)ccc(C)c21` (stereo unspecified), the melting point was 157 to 158 °C.
`COC(=O)c1cn2ccsc2n1` gave a melting point of 153 to 156 °C.
In the case of `N#Cc1ccc(C=Cc2ccc(-c3cc4ccccc4o3)cc2)cc1`, the melting point is reported as 314 to 315 °C.
`c1ccc(C(c2ccccc2)N2CCC2)cc1` gave a melting point of 107 to 109 °C.
With `CNC(=O)Nc1nc2c(s1)C(C)(C)CC(C)(C)C2` the melting point was greater than 250 °C.
For `COc1ccc(COc2ccc(-c3ccc(C(=O)O)c(=O)[nH]3)cc2OC)cc1OC`, the melting point was 217 to 218 °C.
With `CN1CCC[C@H]1c1cnc(Cl)cc1C(O)(c1ccc(C(C)(C)C)cc1)c1ccc(C(C)(C)C)cc1` the melting point was 226 to 230 °C.
Molecule `COc1cc2c(CCN)c(C)[nH]c2c(Cl)c1Cl` has a melting point of 184 to 186 °C.
With `COC(=O)c1ccc(OCCC[Si](C)(C)C)cc1O` the melting point was 32 to 33 °C.
With `CCn1cc(C(=O)O)c(=O)c2cc(F)c(N3CCN(C)C(c4cccs4)C3)cc21` (stereo unspecified) the melting point was 238 to 240 °C.
Work on `CCCCCCCCCC[C@H](NP(=O)(c1ccccc1)c1ccccc1)c1ccccc1` yielded a melting point of 95 to 96 °C.
`CC(=O)c1cc(-c2ccccc2)c(=O)n2c1-c1sccc1CC2` showed a melting point of 149 to 150 °C.
For `CC(C)(C)OC(=O)N1CCC(Nc2ncc3c(n2)-c2ccccc2C(c2ccc(Cl)c(Cl)c2)C3)CC1` (stereo unspecified), the melting point was 94 to 96 °C.
`COC(=O)c1c(O)cc(OCC(O)c2ccc3c(c2)C(C)(C)CCC3(C)C)cc1O` (stereo unspecified) showed a melting point of 127 to 128 °C.
In the case of `NS(=O)(=O)c1cccc(-c2cc(-c3nc(-c4ccc(Cl)cc4)cc(C(F)(F)F)n3)ccn2)c1`, the melting point is reported as 182 °C.
Molecule `CC(C)(C)c1ccc(C[C@@H](NC(=O)c2cccc3c2C=CCCC3)[C@@H](O)c2ccc(F)cc2)cc1` (racemic) has a melting point of 140 to 142 °C.
For `CNC(=S)NS(=O)(=O)c1cc(CCNC(=O)c2cc(C(C)(C)C)ccc2OC)ccc1OC`, the melting point was 165 to 168 °C.
Work on `CC(O)C(C)(C)NC(=S)NC(=O)c1ccccc1` (stereo unspecified) yielded a melting point of 136 to 138 °C.
In the case of `COc1ccc(-c2ccc(-c3ccc(F)cc3)nc2-c2ccc(O)cc2)cc1`, the melting point is reported as 143 to 145 °C.
`COc1cc(C(F)(F)F)ccc1C#N` gave a melting point of 59 to 61 °C.
`Cc1ccc(NC(=O)c2cccc([N+](=O)[O-])c2)cc1` gave a melting point of 160 to 162 °C.
`N#Cc1ccc(ON=C2CCCC(C(=O)O)C2)cc1` (stereo unspecified) showed a melting point of 153 to 154 °C.
`CCN(CC)c1ccc(C2(N(c3ccc(NC(C)=O)cc3)c3ccc(NC(C)=O)cc3)OC(=O)c3ccccc32)c(C)c1` (stereo unspecified) showed a melting point of 179 to 182 °C.
In the case of `CC(C)c1cc(CO)n(Cc2ccc(Cl)cc2Cl)n1`, the melting point is reported as 89 to 90 °C.
With `O=c1c2cnccc2n(-c2cccc(Cl)c2)c2ncccc12` the melting point was 222 to 224 °C.
`Cc1ccc2c(c1O)N=CC1CCCN1C2=O` (stereo unspecified) gave a melting point of 148 to 150 °C.
With `CCC(C(c1ccc(OC)cc1)c1ccc(C(C)(C)C)cc1)[N+](=O)[O-]` (stereo unspecified) the melting point was 114 to 116 °C.
`CCOC(=O)C(=O)Nc1ccccc1Cn1cc(C(=O)OC)c2ccccc21` showed a melting point of 174 to 177 °C.
In the case of `CCOC1CC(n2cc(CC)c(=O)[nH]c2=O)OC1CNC(=O)C(C)Oc1ccc(Cl)cc1Cl` (mixture of isomers), the melting point is reported as 121 to 124 °C.
With `CC(=O)N1Cc2c(n(-c3cccc(Cl)c3)c3ncccc3c2=O)C1` the melting point was 170 to 173 °C.
Work on `COc1cc2c(cc1OCc1ccccc1)CCN(C(=O)c1cc(OC)c(OC)c(OC)c1)C2` yielded a melting point of 63 to 64 °C.
With `O[C@@H](CNCCOc1ccc2oc(-c3ccon3)cc2c1)COc1ccccc1F` the melting point was 109 to 110 °C.
Molecule `FC(F)(F)c1ccc(Cl)cc1CN1CCNc2ncc(-c3ccnc(N4CCNCC4)c3)cc21` has a melting point of 189 °C.
Work on `O=C(Nc1ccc(N2CCCC2)cc1)N(C[C@H]1CC[C@H](CN(C(=O)Nc2ccc(N3CCCC3)cc2)C2CCCCCC2)CC1)C1CCCCCC1` yielded a melting point of 152 to 155 °C.
Molecule `C=CCCOc1ccc(CCCO)c(Oc2ncc(C(F)(F)F)cc2Cl)c1` has a melting point of 75.2 to 75.8 °C.
`COc1ccc(C2(O)CCC3CN(Cc4ccccc4)CCC3C2)cc1` (stereo unspecified) gave a melting point of 38 to 40 °C.
Work on `CC(C)(C)OC(=O)CC1CCC(=O)Nc2ccccc21` (stereo unspecified) yielded a melting point of 101 to 103 °C.
`O=Cc1ccc(-c2ccccc2)c(F)c1` showed a melting point of 82 to 83 °C.
`O=C(CN1C(=O)C2(COc3cc4c(cc32)CCO4)c2c(Br)cccc21)Nc1ccccc1F` (stereo unspecified) gave a melting point of 245 to 246 °C.
With `C/C=C/c1cc(OC)c2c(c1)[C@@H](C)[C@H](c1cc(CO)c(O)c(OC)c1)O2` (relative stereo) the melting point was 117 to 119 °C.
`Oc1cc(O)cc(/C=C/c2ccccc2)c1` showed a melting point of 157 to 158 °C.
In the case of `Cc1coc2ncnc(N)c12`, the melting point is reported as 240 to 242 °C.
Molecule `COc1cccc2c1C1=C(CC2)NC(=O)CC1` has a melting point of 190 °C.
Work on `CCOc1ccc(OC)c2c1CCC=C2` yielded a melting point of 59 to 60 °C.
Work on `Fc1cccc(CCc2nnc(-c3ccnc(NCCCc4ccccc4)c3)o2)c1` yielded a melting point of 91 to 92 °C.
With `OCc1ccc(-c2nn(Cc3ccccc3)c3ncccc23)o1` the melting point was 104 °C.
Work on `CN(C)c1ccc(/C=C/c2cccc(F)c2)cc1` yielded a melting point of 147 to 148 °C.
With `Cc1nc(N2CCN(Cc3ccc(C(F)(F)F)cc3)C2=O)sc1CO` the melting point was 153 to 154 °C.
In the case of `COc1ccc2ncc3c(=O)n(-c4ccccc4)oc3c2c1`, the melting point is reported as 140 °C.
For `Cc1c(C(=O)Nc2ccc(OCCO)cc2)nnn1Cc1ccc(Cl)c(Cl)c1`, the melting point was 140 °C.
Molecule `CC[C@@H](c1ccccc1)N(Cc1ccc(C(=O)O)cc1OC)S(=O)(=O)c1ccc(Cl)cc1` has a melting point of 176 to 178 °C.
`FC(F)(F)Oc1ccc(C2N=C(Nc3cccc(-c4cncnc4)c3)n3ccnc32)cc1` (stereo unspecified) gave a melting point of 120 to 130 °C.
`CCOC1CCC(=O)N1S(=O)(=O)C=Cc1ccc(OC)cc1` (stereo unspecified) showed a melting point of 134 to 136 °C.
`CCC(=O)c1cnc2c(O)cccc2c1Nc1ccccc1C` showed a melting point of 125 to 128 °C.
For `Clc1cccc(Nc2ncnc3[nH]c(-c4ccccc4)cc23)c1`, the melting point was 285 to 286 °C.
In the case of `CCN(CC)c1ccc(C2OC(C)(C)N=C2c2ccccc2)cc1` (stereo unspecified), the melting point is reported as 104 to 105 °C.
With `COc1ccc(-c2cc(C(F)(F)F)n3ncc(-c4ccncc4)c3n2)cc1` the melting point was 244 °C.
In the case of `O=C1C=C(C(=O)c2ccccc2[N+](=O)[O-])CC(c2ccccc2)N1` (stereo unspecified), the melting point is reported as 139 to 141 °C.
For `CC(C)c1[nH][nH]c(=O)c1Cc1ccc2ccccc2c1`, the melting point was 143 to 145 °C.
For `O=C(O)C1=Cc2cc(F)cc(F)c2OC1C(F)(F)F` (stereo unspecified), the melting point was 207 to 211 °C.
`O=S(=O)(NCC(O)(Cn1cncn1)c1ccc(Cl)cc1Cl)c1ccc(Cl)cc1` (stereo unspecified) showed a melting point of 182 to 183 °C.
In the case of `CCCc1cccc(Cl)c1C(=O)N[C@@H](Cc1ccc(-c2c(C)n(C)c(=O)n(C)c2=O)cc1)C(=O)O`, the melting point is reported as 205 to 209 °C.
Work on `CCCC(=O)c1cc(-c2ccccc2)no1` yielded a melting point of 89 to 90 °C.
For `O=C1NCC(Cc2ccccc2-c2ccccc2)O1` (stereo unspecified), the melting point was 146 to 148 °C.
For `Cn1c2c(c3cc(C#N)ccc31)C(=O)CCC2`, the melting point was 190 to 192 °C.
With `COc1ccc2c(c1)C(=O)C(=Cc1ccccc1)O2` the melting point was 134 °C.
With `CC(=O)CC(=O)NC1CCC(C)CC1` (stereo unspecified) the melting point was 111 °C.
With `Cc1cc(-c2cccc(C(F)(F)F)c2)c2nc(C(F)(F)F)cnc2c1` the melting point was 117 to 118 °C.
With `O=C(Nc1nnc(C2CC2)o1)C(c1ccccc1)c1ccccc1` the melting point was 159 to 160 °C.
`O=CC(CC(=O)c1ccccc1)(c1ccccc1)c1ccccc1` gave a melting point of 125 to 127 °C.
For `O=C(O)c1cc(NC(=O)C(CS)Cc2cccnc2)cs1` (stereo unspecified), the melting point was 115 to 118 °C.
`COC(=O)c1ccc(C(O)C#Cc2cc(-c3cccs3)c(OC)cc2OC)cc1` (stereo unspecified) gave a melting point of 128 to 130 °C.
`CCOC(=O)CC[C@H](NC(=O)c1ccc(N)c(F)c1)C(=O)OCC` gave a melting point of 92 to 97 °C.
`Oc1ccc(CCNc2ncnc3nccnc23)cc1` gave a melting point greater than 210 °C.
Work on `O=C(O)CNC1CCc2ccccc2C1` (stereo unspecified) yielded a melting point of 223 to 227 °C.
In the case of `N#CC(c1ccc(C(F)(F)F)cc1)N1CCOCC1` (stereo unspecified), the melting point is reported as 89 to 90 °C.
`Cc1noc(NS(=O)(=O)c2ccccc2-c2ccc(-c3ncco3)cc2/C=C/c2ccccc2)c1C` showed a melting point of 102 to 109 °C.
With `COC1(c2ccc(F)cc2)CCC(=NO)CC1` (stereo unspecified) the melting point was 86 to 89 °C.
With `COC(=O)N1CCN(c2n[nH]c(-c3ccc(Cl)cc3)c2-c2ccncc2)CC1` the melting point was 264 to 265 °C.
For `COc1cc2c(cn1)OCC21C(=O)N(C(c2ccccc2)c2ccccc2)c2ccccc21` (stereo unspecified), the melting point was 177 to 178 °C.
With `O=C(O)c1ccc(-c2cc(O)c(SCCc3ccccc3)c(=O)o2)cc1` the melting point was 231 °C.
With `Brc1cc(N2CCOCC2)ccc1/C=C/c1cc(/C=C/c2ccc3cc[nH]c3c2)[nH]n1` the melting point was 143 to 148 °C.
With `COc1cc2c(Nc3ccc(Sc4nccn4C)c(Cl)c3)c(C#N)cnc2cc1N(C)CCCN(C)C` the melting point was 196 to 201 °C.
